# Structures can show the parent of a compound that is named as a salt.
# Assays:
# HepG2 cells [1] = experiment: TG antisecretory activity: secreted triglyceride from labeled lipid in medium; assay type: cell-based; conditions: 10 µM, 24 hours of culture, control group 161.2± 2.2
# Procedure: HepG2 cells were cultured in DME medium supplemented with 1% BSA and 0.5 mM oleic acid for 24 hours. Then, the medium was changed to 1% BSA-DME containing 10 µM of the amino acid of the invention and simultaneously 0.5 µci of [^14C] acetic acid was added. The cells and medium were recovered after 24 hours of culture. The recovered cells were homogenized by sonication, and after quantitation of protein, the amount of secreted triglyceride (TG) was determined from the amount of labeled lipid in the medium.
# MTP = MTP activity-lowering activity (MTP activity in liver homogenate of orally dosed rats, method of Wetterau); assay type: in vivo; conditions: SD rats, control group 9.09±1.0
# Procedure: SD rats weighing about 200 g in groups of 6 were given 20 mg or 60 mg of the hydrochloride of the amino acid of the invention in 10 ml of water in 3 divided doses daily for 2 weeks. Thereafter, the liver was excised and homogenized using a homogenizing buffer (50 mM Tris (pH 7.4), 50 mM potassium chloride, […], leupeptin (5 µg/ml) and 2 mM phenylmethylsulfonyl fluoride) and the homogenate was centrifuged to give a liver homogenate. This liver homogenate was adjusted to a protein concentration of about 2 mg/mL with the same homogenizing buffer and 1 part of deoxycholate solution (0.56%, pH 7.5) was added to 10 parts of the homogenate. The reaction was then carried out at 4°C for 30 minutes, whereby MTP was liberated from the microsomal fraction. The membrane fraction was then removed by centrifugation to give a supernatant. This supernatant was diluted with Tris buffer (a buffer solution containing 15 mM Tris (pH 7.4), 40 mM NaCl, 1 mM EDTA, 0.02% NaN3) and dialyzed against the same buffer at 4°C overnight. The dialysate thus obtained was analyzed for MTP activity by the method of J. R. Wetterau [Science, 258, 999 (1992)].
# HepG2 cells [2] = experiment: Apo B antisecretory activity (1): apo B secreted into medium, ELISA; assay type: cell-based, human; conditions: for Apo B secretions (µg/well): HepG2 cells, 24 hours culture, control group 9.92±0.80
# Procedure: HepG2 cells (100×10^4 cells/dish) were sown on 3.5 cm dishes and precultured using 1 ml DME (containing 10% FCS) medium per dish. Following this preculture, the cells were washed with DME medium twice, added to the test medium, and cultured at 37°C under 95% air-5% carbon dioxide for 24 hours. The test medium was prepared by dissolving cycloalliin in dimethyl sulfoxide and diluted with DME medium containing 1% BSA and 0.5 mM oleic acid to a final cycloalliin concentration of 10^-6 M or 10^-4 M.
# After 24 hours' culture, the medium was recovered and the amount of apo B secreted into the medium was determined by ELISA. Thus, anti-human apo B antibody (a 100-fold dilution) was distributed into a 96-well ELISA plate, 100 µL per well, and incubated at 37°C for 2 hours. Then, 100 µL/well of Block Ace was added and the plate was further incubated at 37°C for 2 hours. The wells were washed with PBS-Tween × 3 and 100 µL each of apo B standard solution and HepG2 culture were added, followed by further incubation at 4°C for 16 hours. After the wells were washed with PBS-Tween × 3, 100 µL/well of anti-human apo B marker antibody (a 200-fold dilution) was added and the plate was incubated at 37°C for 2 hours. The wells were washed with PBS-Tween × 3, then 100 µL/well of the substrate solution was added, and the plate was incubated at 25°C for 30 minutes. The reaction was stopped by adding 50 µL of 4.5 M H2SO4 and the absorbance at 482 nm was measured to estimate the amount of apo B secretion.
# HepG2 cells [3] = experiment: Apo B antisecretory activity (2): apo B secretions, ELISA; assay type: cell-based; conditions: 10 µM; for Apo B secretions (ng/mg protein) After 24 hr of culture: control group 2544±425; for Apo B secretions After 24 hr of culture (%) / Apo B secretions After 48 hr of culture (%): percent of control group (100); for Apo B secretions (ng/mg protein) After 48 hr of culture: control group 2080±110
# Procedure: HepG2 cells were cultured in DME medium supplemented with 1% BSA and 0.5 mM oleic acid for 24 hours. Then, the medium was changed to 1% BSA-DME medium containing 10 µM of the amino acid of the invention and 0.5 µci of [^14C] acetic acid was simultaneously added. The cells and medium were recovered after 24 hours or 48 hours of culture. The recovered cells were homogenized by sonication, and after quantitation of protein, the amount of apo B secretions was determined by ELISA.
# [4] = 60 mg in 10 ml of water in 3 divided doses daily for 2 weeks
Compound,TG secretions ([^14C]dpm × 10^-2/mg protein) (HepG2 cells [1]),MTP activity (%) (MTP; [4]),Apo B secretions (ng/mg protein) After 24 hr of culture (HepG2 cells [3]) [ng/mg protein],Apo B secretions After 24 hr of culture (%) (HepG2 cells [3]),Apo B secretions (ng/mg protein) After 48 hr of culture (HepG2 cells [3]) [ng/mg protein],Apo B secretions After 48 hr of culture (%) (HepG2 cells [3]),further results
C[S+]([O-])CCC(N)C(=O)O (racemic) [DL-methionine sulfoxide],72.1± 8.5 [^14C]dpm × 10^-2/mg protein,–,–,–,–,–,–
"C[C@H]1C[S@+]([O-])C[C@@H](C(=O)O)N1 [Cycloalliin HCl, (1S,3R,5S)-5-methyl-1,4-thiazane-3-carboxylic acid 1-oxide]",–,4.92±1.0,–,–,–,–,MTP activity (%) (MTP; 20 mg in 10 ml of water in 3 divided doses daily for 2 weeks): 6.12±0.7 %
"C[C@H]1C[S@+]([O-])C[C@@H](C(=O)O)N1 [Cycloalliin, (1S,3R,5S)-5-methyl-1,4-thiazane-3-carboxylic acid 1-oxide]",–,–,–,–,–,–,Apo B secretions (µg/well) (HepG2 cells [2]; 10^-4 M): 7.67±1.31 µg/well; Apo B secretions (µg/well) (HepG2 cells [2]; 10^-6 M): 7.54±1.13 µg/well; apo B secretion (result in words) (HepG2 cells [2]; summary of Table 2): significant suppression
CCSC[C@H](N)C(=O)O [S-ethyl-L-cysteine],102.2± 7.1 [^14C]dpm × 10^-2/mg protein,–,2390±615,93.9,994±111,47.8,–
"CSC[C@H](N)C(=O)O [S-methyl-L-cysteine HCl, S-methyl-L-cysteine]",–,5.68±0.6,–,–,–,–,–
CSC[C@H](N)C(=O)O [S-methyl-L-cysteine],128.2±14.6 [^14C]dpm × 10^-2/mg protein,–,2511±173,98.7,1906±122,91.6,–
CCCSC[C@H](N)C(=O)O [S-n-propyl-L-cysteine],99.0± 9.3 [^14C]dpm × 10^-2/mg protein,–,2157± 86,84.8,555± 23,26.7,–
S-methyl-L-cysteine sulfoxide [S-methyl-L-cysteine sulfoxide HCl],–,5.43±0.6,–,–,–,–,–
S-n-propyl-L-cysteine sulfoxide,105.8±18.9 [^14C]dpm × 10^-2/mg protein,–,–,–,–,–,–

# Reference: patent EP1080724A1, “MTP ACTIVITY-LOWERING COMPOSITIONS” (Nippon Shinyaku Co., Ltd., priority 1998, dated 1999)
